Tested on: human keratinocyte cell line (HaCaT)
Assay: Cytokine secretion on protein level in activated human keratinocyte cell line HaCaT (13-plex FACS / Luminex, supernatant)
Format: cell-based
Procedure, shortened: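 Cytokine protein in supernatant is read by multiplex FACS or Luminex. Tripeptide-treated HaCaT cells or blood-derived human T-cells are stimulated beforehand with PMA/Ionomycin or IFN-γ. The most relevant analytes are IL-1, IL-2, IL-6, IL-12p70, IL-17, IFN-γ and TNF-α, sampled 48 h and 72 h after stimulation.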

[1] = HaCaT stimulated with IFN-γ, 10^−9M
[2] = HaCaT stimulated with IFN-γ, 10^−9M, excluded from the final assessment
[3] = HaCaT stimulated with IFN-γ, substance 10^−9M
[4] = HaCaT stimulated with PBS, 10^−9M
[5] = HaCaT stimulated with PBS, 10^−9M, excluded from the final assessment
[6] = HaCaT stimulated with PBS, substance 10^−9M
[7] = HaCaT stimulated with PMA/Ionomycin, 10^−9M
[8] = HaCaT stimulated with PMA/Ionomycin, 10^−9M, excluded from the final assessment
[9] = HaCaT stimulated with PMA/Ionomycin, substance 10^−9M

Substance: alpha-melanocyte-stimulating hormone [α-MSH, reference compound]
- IL-1 cytokine concentration [1]: 238.96 pg/mL
- IL-2 cytokine concentration [1]: 119.87 pg/mL
- IL-4 cytokine concentration [1]: 70.08 pg/mL
- IL-5 cytokine concentration [1]: 184.1 pg/mL
- IL-6 cytokine concentration [1]: 750.84 pg/mL
- IL-9 cytokine concentration [1]: 83.5 pg/mL
- IL-10 cytokine concentration [1]: 82.71 pg/mL
- IL-13 cytokine concentration [1]: 55.34 pg/mL
- IL-17 cytokine concentration [1]: 598.13 pg/mL
- TNF-α cytokine concentration [1]: 67.75 pg/mL
- IL-12p70 cytokine concentration [2]: 0 pg/mL
- IL-22 cytokine concentration [2]: 0 pg/mL
- IL-1 cytokine concentration [3]: 0 pg/mL
- IL-2 cytokine concentration [3]: 0 pg/mL
- IL-4 cytokine concentration [3]: 0 pg/mL
- IL-5 cytokine concentration [3]: 0 pg/mL
- IL-6 cytokine concentration [3]: 202.37 pg/mL
- IL-9 cytokine concentration [3]: 0 pg/mL
- IL-10 cytokine concentration [3]: 0 pg/mL
- IL-12 cytokine concentration [3]: 0 pg/mL
- IL-12p70 cytokine concentration [3]: 0 pg/mL
- IL-13 cytokine concentration [3]: 0 pg/mL
- IL-17 cytokine concentration [3]: 95.44 pg/mL
- IL-22 cytokine concentration [3]: 0 pg/mL
- TNF-α cytokine concentration [3]: 45.91 pg/mL
- IFN-γ cytokine concentration [4]: 365.47 pg/mL
- IL-1 cytokine concentration [4]: 271.66 pg/mL
- IL-2 cytokine concentration [4]: 251.78 pg/mL
- IL-4 cytokine concentration [4]: 56.84 pg/mL
- IL-5 cytokine concentration [4]: 150.8 pg/mL
- IL-6 cytokine concentration [4]: 76.75 pg/mL
- IL-9 cytokine concentration [4]: 124.69 pg/mL
- IL-10 cytokine concentration [4]: 107.72 pg/mL
- IL-13 cytokine concentration [4]: 65.47 pg/mL
- IL-17 cytokine concentration [4]: 544.96 pg/mL
- TNF-α cytokine concentration [4]: 97.16 pg/mL
- IL-12p70 cytokine concentration [5]: 0 pg/mL
- IL-22 cytokine concentration [5]: 9847.56 pg/mL
- IFN-γ cytokine concentration [6]: 0 pg/mL
- IL-1 cytokine concentration [6]: 0 pg/mL
- IL-2 cytokine concentration [6]: 0 pg/mL
- IL-4 cytokine concentration [6]: 118.52 pg/mL
- IL-5 cytokine concentration [6]: 0 pg/mL
- IL-6 cytokine concentration [6]: 15.22 pg/mL
- IL-9 cytokine concentration [6]: 9.51 pg/mL
- IL-10 cytokine concentration [6]: 39.54 pg/mL
- IL-12 cytokine concentration [6]: 0 pg/mL
- IL-12p70 cytokine concentration [6]: 0 pg/mL
- IL-13 cytokine concentration [6]: 0 pg/mL
- IL-17 cytokine concentration [6]: 0 pg/mL
- IL-22 cytokine concentration [6]: 0 pg/mL
- TNF-α cytokine concentration [6]: 0 pg/mL
- IFN-γ cytokine concentration [7]: 617.26 pg/mL
- IL-1 cytokine concentration [7]: 143.16 pg/mL
- IL-2 cytokine concentration [7]: 98.72 pg/mL
- IL-4 cytokine concentration [7]: 72.6 pg/mL
- IL-5 cytokine concentration [7]: 131.91 pg/mL
- IL-6 cytokine concentration [7]: 113.54 pg/mL
- IL-9 cytokine concentration [7]: 105.55 pg/mL
- IL-10 cytokine concentration [7]: 111.19 pg/mL
- IL-13 cytokine concentration [7]: 55.34 pg/mL
- IL-17 cytokine concentration [7]: 338.9 pg/mL
- TNF-α cytokine concentration [7]: 103.98 pg/mL
- IL-12p70 cytokine concentration [8]: 0 pg/mL
- IL-22 cytokine concentration [8]: 9995.76 pg/mL
- IFN-γ cytokine concentration [9]: 0 pg/mL
- IL-1 cytokine concentration [9]: 0 pg/mL
- IL-2 cytokine concentration [9]: 0 pg/mL
- IL-4 cytokine concentration [9]: 113.12 pg/mL
- IL-5 cytokine concentration [9]: 0 pg/mL
- IL-6 cytokine concentration [9]: 179.03 pg/mL
- IL-9 cytokine concentration [9]: 0 pg/mL
- IL-10 cytokine concentration [9]: 93.2 pg/mL
- IL-12 cytokine concentration [9]: 0 pg/mL
- IL-12p70 cytokine concentration [9]: 0 pg/mL
- IL-13 cytokine concentration [9]: 0 pg/mL
- IL-17 cytokine concentration [9]: 0 pg/mL
- IL-22 cytokine concentration [9]: 0 pg/mL
- TNF-α cytokine concentration [9]: 0 pg/mL

Source: patent publication US10954269B2, “Anti-inflammatory tripeptides” (Dr. August Wolff Gmbh & Co. KG Arzneimittel, priority 2013, dated 2021)
